Test systems include MOLT-4 leukemia; M14 melanoma; SK-MEL-5 melanoma; NCI-H226 lung; SNB-75 CNS; NCI-H522 lung; PC-3 prostate; HS 578T breast.
Holding throughout (assay): NCI anticancer screen, dose series, 48 h

Structures are written as SMILES.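 In this assay, cells in 96-well plates receive the compound at five concentrations for 48 hours. Endpoints are linearly interpolated between the surrounding concentrations. At the TGI there is no net growth.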

As to `COc1cc(/C=C2\CC3C4CC=C5C[C@@H](O)CC[C@]5(C)C4CC[C@]3(C)\C2=N\O)cc(OC)c1OC` (stereo partly drawn), the TGI is > 100 µM in the test with MOLT-4 leukemia; 27.6 µM in the test on M14 melanoma; 19.2 µM with SK-MEL-5 melanoma; 60.9 µM in the test on NCI-H226 lung; > 100 µM in the test on SNB-75 CNS; > 100 µM in the test with NCI-H522 lung. Further, the TGI is 37.8 µM in the test on PC-3 prostate and > 100 µM in the test on HS 578T breast.
Take `CCN(CC)P(=O)(c1ccc2c(c1)OCCOCCOCCOCCO2)N(CC)CC`: the TGI with MOLT-4 leukemia, with M14 melanoma, with SK-MEL-5 melanoma, with NCI-H226 lung, with SNB-75 CNS and with NCI-H522 lung was > 100 µM in each case. Moreover, the TGI in the test with PC-3 prostate and with HS 578T breast was > 100 µM in each case.
Turning to `Fc1ccc(/C=C2\COCC3=C2NC(=S)NC3c2ccc(F)cc2)cc1` (stereo not drawn), the TGI in the test on MOLT-4 leukemia was 54 µM; in the test on M14 melanoma, 30.1 µM; in the test on SK-MEL-5 melanoma, 33.5 µM; with NCI-H226 lung, 45.1 µM; in the test with SNB-75 CNS it was 57.6 µM; in the test on NCI-H522 lung, 34.2 µM. Further, the results for the TGI in the test with PC-3 prostate and with HS 578T breast were 33 µM and 52.7 µM, respectively.
Regarding `COc1ccc(Nc2nc3ccccc3nc2-c2cccs2)cc1OC`, the TGI in the test on MOLT-4 leukemia, in the test on M14 melanoma, in the test on SK-MEL-5 melanoma, with NCI-H226 lung, in the test with SNB-75 CNS and in the test on NCI-H522 lung was > 10 µM in each case. Moreover, the TGI with PC-3 prostate and with HS 578T breast was > 10 µM each time.
For `O=S(=O)(O)c1cc(O)c(N=NC2S(=O)(=O)OCCOS2(=O)=O)c2ccccc12`, the TGI in the test with MOLT-4 leukemia, in the test on M14 melanoma, in the test with SK-MEL-5 melanoma, with NCI-H226 lung, in the test with SNB-75 CNS and with NCI-H522 lung was > 100 µM in each case. Besides, the TGI with PC-3 prostate and with HS 578T breast was > 100 µM in each case.
As for `Nc1nc(N)c2cc(-c3cc4ccccc4[nH]3)ccc2n1`, the TGI in the test on MOLT-4 leukemia is 53.1 µM; with M14 melanoma, 34.4 µM; in the test with SK-MEL-5 melanoma, 30.2 µM; in the test on NCI-H226 lung, 93.7 µM; with SNB-75 CNS, > 100 µM; with NCI-H522 lung, 42.4 µM. In addition, the TGI in the test with PC-3 prostate and in the test with HS 578T breast was > 100 µM throughout.
As for `CCOC(=O)Cn1nnc2ccc(Nc3nc4ccccc4nc3C(=O)OCC)cc21`, the TGI in the test with MOLT-4 leukemia was > 100 µM; in the test with M14 melanoma, > 100 µM; in the test with SK-MEL-5 melanoma, > 100 µM; in the test with NCI-H226 lung, > 100 µM; with SNB-75 CNS, 46.5 µM; with NCI-H522 lung, > 100 µM. Also, the TGI with PC-3 prostate and in the test on HS 578T breast was > 100 µM throughout.
As to `COc1ccc(OC)c([N+](=O)[O-])c1-c1nc2sc(Cl)cn2c1/C=N/N=C(N)N`, the TGI in the test on MOLT-4 leukemia is 23.2 µM; in the test on M14 melanoma it was > 100 µM; in the test on SK-MEL-5 melanoma, 32.3 µM; in the test with NCI-H226 lung, 44.1 µM; in the test with SNB-75 CNS it was 24.9 µM; in the test with NCI-H522 lung, 37.9 µM. For the same compound, the TGI with PC-3 prostate turned out to be 41.8 µM; with HS 578T breast it was 51.7 µM.
`O=C1C(NS(=O)(=O)c2ccccc2)=C(n2ccnc2)C(=O)c2ccccc21`: the TGI with MOLT-4 leukemia, in the test on M14 melanoma, in the test with SK-MEL-5 melanoma, in the test on NCI-H226 lung, with SNB-75 CNS and in the test with NCI-H522 lung was > 100 µM in each case. Besides, the TGI in the test with PC-3 prostate and in the test on HS 578T breast was > 100 µM each time.
`COc1nc2ncc([C@@H](OC(C)=O)[C@@H](COC(C)=O)OC(C)=O)nc2c(=O)n1C`: the TGI in the test with MOLT-4 leukemia, in the test on M14 melanoma, in the test with SK-MEL-5 melanoma, with NCI-H226 lung, with SNB-75 CNS and in the test on NCI-H522 lung was > 100 µM in each case. The TGI in the test on PC-3 prostate and in the test with HS 578T breast was > 100 µM each time.
For the compound `COc1cc2ncnc(Nc3cccc(Br)c3)c2cc1OC`, the TGI with MOLT-4 leukemia was > 65.5 µM; in the test with M14 melanoma, 20.6 µM; with SK-MEL-5 melanoma, 5.67 µM; in the test with NCI-H226 lung, 18.5 µM; with SNB-75 CNS it was 29.3 µM; in the test with NCI-H522 lung, 11.1 µM. The values for the TGI in the test on PC-3 prostate and in the test on HS 578T breast were > 37.2 µM and 53.2 µM, respectively.
On to `CCN1CC2=C(OC(N)=C(C#N)C2c2ccc(Cl)cc2)/C(=C/c2ccc(Cl)cc2)C1` (stereo not drawn), for which the TGI in the test on MOLT-4 leukemia was > 100 µM; in the test with M14 melanoma, > 100 µM; with SK-MEL-5 melanoma it was > 100 µM; in the test with NCI-H226 lung it was 94.3 µM; in the test with SNB-75 CNS it was 34.2 µM; with NCI-H522 lung, > 100 µM. Also, the TGI was 98.9 µM in the test on PC-3 prostate and > 100 µM with HS 578T breast.
As for `CC(Nc1cccc(Cl)c1)c1ccncc1` (stereo not drawn), the TGI in the test with MOLT-4 leukemia, with M14 melanoma, in the test on SK-MEL-5 melanoma, with NCI-H226 lung, in the test on SNB-75 CNS and in the test on NCI-H522 lung was > 100 µM throughout. Also, the TGI in the test with PC-3 prostate and in the test with HS 578T breast was > 100 µM each time.
As for `CN(C)CC1CCC/C(=C\c2ccc(Cl)c(Cl)c2)C1=O` (stereo not drawn), the TGI came out at 4.83 µM in the test with MOLT-4 leukemia; 11.2 µM in the test on M14 melanoma; 22.7 µM in the test on SK-MEL-5 melanoma; 24.5 µM with NCI-H226 lung; 21.2 µM in the test with SNB-75 CNS; 4.1 µM in the test on NCI-H522 lung. The TGI was > 33.5 µM in the test with PC-3 prostate and 9.51 µM with HS 578T breast.
For the compound `O=C1O/C(=C(\Br)c2ccc([N+](=O)[O-])cc2)c2ccccc21`, the TGI is > 69.1 µM in the test on MOLT-4 leukemia; > 100 µM in the test on M14 melanoma; > 100 µM with SK-MEL-5 melanoma; > 100 µM with NCI-H226 lung; > 100 µM in the test with SNB-75 CNS; > 88.8 µM in the test with NCI-H522 lung. Also, the TGI in the test with PC-3 prostate and in the test with HS 578T breast was > 100 µM in each case.
As for `Cc1cc(C)c2c(-c3ccccc3)cc(=O)[nH]c2c1`, the TGI in the test with MOLT-4 leukemia, with M14 melanoma, in the test on SK-MEL-5 melanoma, in the test on NCI-H226 lung, in the test with SNB-75 CNS and in the test on NCI-H522 lung was > 100 µM each time. Besides, the TGI in the test on PC-3 prostate and with HS 578T breast was > 100 µM each time.
